From article PMC12292835, “Amylin Receptor 1 Mutagenesis Revealed a Potential Role of Calcitonin Serine 29 in Receptor Interaction” (Biomedicines, 2025)
Where a SMILES comes first, the peptide text is derived from it. The star is where a group is joined. FITC = O=C1OC2(c3ccc(O)cc3Oc3cc(O)ccc32)c2ccc(NC(=S)*)cc21

Columns and labels:
receptor ECD = receptor ECD binding; cited from earlier work
Experimental: The salmon calcitonin C-terminal fragment was reported to have micromolar affinity (KI 1~3 μM) both for calcitonin and amylin receptor ECDs. The fluorescein isothiocyanate (FITC)-labeled salmon calcitonin fragment (FITC-sCT(22–32)) was used as a peptide probe for the receptor–ligand binding assay in the current study. FITC addition to the N-terminus of an amylin receptor antagonistic peptide AC413(6–25) Y25P was previously shown to increase the peptide affinity for receptor ECD binding by more than 10-fold. Based on the binding affinity of FITC-sCT(22–32) measured in the current ...

[1] = biological target: T1, amylin receptor 1 ECD with calcitonin receptor E123D mutation (Homo sapiens, UniProt O60894+P30988, E123D); test: FP saturation binding, E123D; settings: for Average fluorescence intensity change upon receptor ECD binding: % of a free probe intensity, Mean ± S.D., max receptor 3 μM (sCT), 1 μM (AC413); for effect of mutation on binding affinity: compared with E123A, in words
T1 construct: pHLsec/hRAMP1.24–111-(GSA)3-hCTR.34–141.E123D-H6 (D-pJJ001); H6 (hexahistidine) (C); made in house; host or cells: HEK293 (transient transfection, secreted, N-glycosylated)
T1 sequence (O60894 24-111): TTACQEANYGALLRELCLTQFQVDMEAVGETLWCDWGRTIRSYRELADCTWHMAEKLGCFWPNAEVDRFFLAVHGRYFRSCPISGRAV
T1 sequence (P30988 34-141 E123D): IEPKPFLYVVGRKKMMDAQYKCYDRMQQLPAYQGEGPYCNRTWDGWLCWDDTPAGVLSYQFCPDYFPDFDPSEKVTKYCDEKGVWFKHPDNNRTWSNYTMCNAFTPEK
Text: pHLsec-based vectors were used to express wild-type and mutated amylin receptor 1 extracellular domains as secreted proteins to cell culture media. The plasmid DNA construct of the wild-type amylin receptor 1 extracellular domain, pHLsec/hRAMP1.24–111-(GSA)3-hCTR.34–141-H6 (H-pSL005) was previously described. The following DNA vector plasmids were made for this study: pHLsec/hRAMP1.24–111-(GSA)3-hCTR.34–141.D97A-H6 (D-pSL009), pHLsec/hRAMP1.24–111-(GSA)3-hCTR.34–141.D97E-H6 (D-pJS001), pHLsec/hRAMP1.24–111-(GSA)3-hCTR.34–141.D101A-H6 (D-pJJ003), pHLsec/hRAMP1.24–111-(GSA)3-hCTR.34–141.D101E-H6 (D-pJJ002), pHLsec/hRAMP1.24–111-(GSA)3-hCTR.34–141.E123A-H6 (D-pJJ004), pHLsec/hRAMP1.24–111-(GSA)3-hCTR.34–141.E123D-H6 (D-pJJ001), pHLsec/hRAMP1.24–111-(GSA)3-hCTR.34–141.N124A-H6 (D-pJS005), pHLsec/hRAMP1.24–111-(GSA)3-hCTR.34–141.N124D-H6 (D-pJS006), pHLsec/hRAMP1.24–111-(GSA)3-hCTR.34–141.N135A-H6 (D-pJW001), and pHLsec/hRAMP1.24–111-(GSA)3-hCTR.34–141.N135D-H6 (D-pJS002). The mutations were introduced to the calcitonin receptor extracellular domain by using DNA Assembly reaction. Coding sequences of the receptor expression vectors were confirmed with Sanger sequencing by Bionics (Seoul, Republic of Korea). DNA plasmid vectors were extracted and were purified from bacterial cells with NucleoBond® Extra Midi Plus kit (Macherey-Nagel, Germany). The purified DNA vectors were stored at −20 °C until their use for mammalian cell transfection.
The overall experimental procedure of reconstituting the functional amylin receptor 1 extracellular domain (ECD) as the fusion protein of RAMP1 ECD and the calcitonin receptor ECD was previously described. The wild-type and mutated amylin receptor 1 ECDs were expressed from HEK293 cells with transient transfection with polyethylenimine. The expressed receptor proteins were secreted to cell culture media for 4 days at 37 °C. The media were collected for the receptor protein purification. Initial dialysis was performed with the dialysis buffer (Tris 25 mM (pH 7.4), NaCl 150 mM, and imidazole 10 mM) overnight. […] Then, a size exclusion column chromatography (SEC) was performed with SEC column (Cytiva, HiLoad® 16/600 Superdex® 200 pg) and SEC buffer (Tris 50 mM (pH 7.4), NaCl 150 mM, and glycerol (v/v) 10%) as previously described. As the final step, the purified receptor proteins were dialyzed to storage buffer (HEPES 25 mM (pH 7.4), NaCl 150 mM, and glycerol (v/v) 50 %) and were stored at −60 °C until their use for the receptor–ligand binding assay. […]
The overall procedure of the FP binding assay with a saturation binding format was previously described. […] FITC-labeled peptide probes were incubated for 1 h at room temperature with the purified receptor protein prior to fluorescence signal measurement. […]

Compound | increase of peptide affinity by FITC addition to the N-terminus (receptor ECD) | Average fluorescence intensity change upon receptor ECD binding [1] [%] | effect of mutation on binding affinity [1]
CC(C)C[C@H](NC(=O)[C@H](CCCNC(=N)N)NC(=O)[C@@H](NC(=O)[C@H](CC(C)C)NC(=O)[C@H](Cc1ccccc1)NC(=O)[C@H](CC(N)=O)NC(=O)[C@H](C)NC(=S)Nc1ccc2c(c1)C(=O)OC21c2ccc(O)cc2Oc2cc(O)ccc21)C(C)C)C(=O)N[C@@H](CCC(N)=O)C(=O)N[C@H](C(=O)N[C@@H](Cc1ccc(O)cc1)C(=O)N1CCC[C@H]1C(=O)N[C@@H](CCCNC(=N)N)C(=O)N[C@H](C(=O)N[C@@H](CC(N)=O)C(=O)N[C@H](C(=O)NCC(=O)N[C@@H](C)C(=O)N[C@@H](CC(N)=O)C(=O)N[C@H](C(=O)N1CCC[C@H]1C(N)=O)[C@@H](C)O)C(C)C)[C@@H](C)O)[C@@H](C)O [FITC-AC413(6–25) Y25P] ({FITC}-ANFLVRLQTYPRTNVGANTP-NH2; C-terminus assumed) | more than 10 fold | 72 ± 4 | failed to restore the decreased binding affinity
C[C@@H](O)[C@H](NC(=O)[C@H](CC(N)=O)NC(=O)[C@@H](NC(=O)[C@H](CCCNC(=N)N)NC(=O)[C@@H]1CCCN1C(=O)[C@H](Cc1ccc(O)cc1)NC(=S)Nc1ccc2c(c1)C(=O)OC21c2ccc(O)cc2Oc2cc(O)ccc21)[C@@H](C)O)C(=O)NCC(=O)N[C@@H](CO)C(=O)NCC(=O)N[C@H](C(=O)N1CCC[C@H]1C(N)=O)[C@@H](C)O [FITC-sCT(22–32)] ({FITC}-YPRTNTGSGTP-NH2; C-terminus assumed) |  | 72 ± 6 | fully restored the decreased binding affinity
